Laboratory results reported in patent US20240373851A1, “PEST CONTROL COMPOSITION AND PEST CONTROL METHOD” (SUMITOMO CHEMICAL COMPANY, LIMITED, priority 2021, published 2024).

Columns and labels:
Format in all cases: in vivo
[1] = test system: German cockroaches (Blattella germanica); assay: Test Example 11: control test against German cockroaches, spray in chamber; details: adult German cockroaches; 1.5 mL sprayed; concentration [%]: isocycloseram 0.01, imiprothrin 0.01, permethrin 0.05, alone or mixed; 120 minutes after spraying
Experimental: (§1) Next, the usefulness of the inventive composition for controlling pests will be indicated by Test Examples. In general, the control effect to be expected when treated with a mixture obtained by mixing given two or three types of active ingredient compounds is determined by the Colby's calculation equation represented by the following [Equation 1] and [Equation 2].
(§2) [formula] • P: moribund and mortal rates (%) when treated with an active ingredient compound X in the concentration of m [ppm] • Q: moribund and mortal rates (%) when treated with an active ingredient compound Y in the concentration of n [ppm] • EA: moribund and mortal rates (%) when treated with an active ingredient compound X in the concentration of m [ppm] and an active ingredient compound Y in the concentration of n [ppm] (hereinafter referred to as expected value A) […]
(§3) Regarding the synergistic effect of three types of the active ingredient compounds, in case where the moribund and mortal rates (%) when actually treated with a mixture obtained by mixing three types of the active ingredient compounds exceed the expected value A calculated by using the moribund and mortal rates (%) when actually treated with a mixture obtained by mixing two types of the active ingredient compounds among three types thereof, and the moribund and mortal rates (%) calculated when actually treated the remaining one type of the active ingredient compound, or the expected value B (%) calculated from the moribund and mortal rates (%) when actually treated with each of three types of the active ingredient compounds alone, it was determined that the synergistic effect exists. […]

[2] = test system: German cockroaches (Blattella germanica); assay: Test Example 6: control test against German cockroaches, spray in chamber; details: adult German cockroaches; 1.5 mL sprayed; concentration [%]: isocycloseram 0.05, imiprothrin 0.01, lambda-cyhalothrin 0.0025, alone or mixed; 60 minutes after spraying
Experimental: as §1, §2, §3

[3] = test system: German cockroaches (Blattella germanica); assay: Test Example 7: control test against German cockroaches, spray in chamber; details: adult German cockroaches; 1.5 mL sprayed; concentration [%]: isocycloseram 0.05, imiprothrin 0.01, cypermethrin 0.01, alone or mixed; 120 minutes after spraying
Experimental: as §1, §2, §3

[4] = test system: German cockroaches (Blattella germanica); assay: Test Example 2: control test against German cockroaches, spray in chamber; details: adult German cockroaches; 1.5 mL sprayed; concentration [%]: nicofluprole 0.01, imiprothrin 0.01, cypermethrin 0.01, alone or mixed; 120 minutes after spraying
Experimental: as §1, §2, §3

[5] = test system: German cockroaches (Blattella germanica); assay: Test Example 5: control test against German cockroaches, spray in chamber; details: adult German cockroaches; 1.5 mL sprayed; concentration [%]: nicofluprole 0.01, imiprothrin 0.01, cyfluthrin 0.0002, alone or mixed; 45 minutes after spraying
Excerpt: (§4) Next, the usefulness of the inventive composition for controlling pests will be indicated by Test Examples.
(§5) (hereinafter referred to as expected value A)
(§6) (hereinafter referred to as expected value B)
(§7) In a plastic cup (diameter: 12.4 cm, height: 10.2 cm) lined with a filter paper, ten adult German cockroaches (Blattella germanica) (five males and five females each) or eleven adult German cockroaches were released, and the plastic cup was placed in the center of the bottom of a box-shaped chamber (46 cm×46 cm×70 cm in height). From the height of 60 cm, 1.5 mL of each of formulations prepared by dissolving a single agent of any one of nicofluprole, imiprothrin and cyfluthrin, or a mixed agent of two or more thereof in a mixture of isopropyl alcohol and Isopar M at a mixing ratio of 1:9 was sprayed under a spray pressure of 0.041 MPa. After a lapse of 45 minutes from spraying, the number of dead and moribund individuals was examined, and moribund and mortal rates (%) were determined by the above equation 3. The test was performed through two replicates. Dead individuals are completely immobile individuals, and moribund individuals are individuals who cannot get up when turned on their backs.

[6] = test system: German cockroaches (Blattella germanica); assay: Test Example 8: control test against German cockroaches, spray in chamber; details: adult German cockroaches; 1.5 mL sprayed; concentration [%]: nicofluprole 0.01, imiprothrin 0.01, phenothrin 0.1, alone or mixed; 45 minutes after spraying
Experimental: as §1, §2, §3

[7] = test system: German cockroaches (Blattella germanica); assay: Test Example 10: control test against German cockroaches, spray in chamber; details: adult German cockroaches; 1.5 mL sprayed; concentration [%]: nicofluprole 0.01, imiprothrin 0.01, permethrin 0.05, alone or mixed; 60 minutes after spraying
Experimental: as §1, §2, §3

[8] = test system: German cockroaches (Blattella germanica); assay: Test Example 4: control test against German cockroaches, spray in chamber; details: adult German cockroaches; 1.5 mL sprayed; concentration [%]: nicofluprole 0.01, imiprothrin 0.01, deltamethrin 0.0002, alone or mixed; 45 minutes after spraying
Experimental: as §1, §2, §3

[9] = test system: German cockroaches (Blattella germanica); assay: Test Example 9: control test against German cockroaches, spray in chamber; details: adult German cockroaches; 1.5 mL sprayed; concentration [%]: broflanilide 0.02, imiprothrin 0.01, permethrin 0.05, alone or mixed; 420 minutes after spraying
Excerpt: as §4, §5, §6
as §7, with “each)” for “each) or eleven adult German cockroaches”, “broflanilide,” for “nicofluprole,”, “permethrin,” for “cyfluthrin,”, “420” for “45”

Row | Compound | Moribund and mortal rates [%] after 120 minutes [1] | Moribund and mortal rates [%] after 60 minutes [2] | Moribund and mortal rates [%] after 120 minutes [3] | Moribund and mortal rates [%] after 120 minutes [4] | Moribund and mortal rates [%] after 45 minutes [5] | Moribund and mortal rates [%] after 45 minutes [6] | Moribund and mortal rates [%] after 60 minutes [7] | Moribund and mortal rates [%] after 45 minutes [8] | Moribund and mortal rates [%] after 420 minutes [9]
1 | CCN1OCC(NC(=O)c2ccc(C3=NOC(c4cc(Cl)c(F)c(Cl)c4)(C(F)(F)F)C3)cc2C)C1=O (centres unmarked) [Isocycloseram, isocycloseram] | 5% | 5% | 10% |  |  |  |  |  | 
2 | CN(C(=O)c1cc(-c2cnn(-c3c(Cl)cc(C(F)(C(F)(F)F)C(F)(F)F)cc3Cl)c2)cnc1Cl)C1CC1 [Nicofluprole, nicofluprole] |  |  |  | 0% | 0% | 0% | 0% | 0% | 
3 | CC1(C)C(C=C(Cl)Cl)C1C(=O)OCc1cccc(Oc2ccccc2)c1 (centres unmarked) [Permethrin, permethrin] | 5% |  |  |  |  |  | 5% |  | 5%
